Experimental data from patent US20080182895A1 (priority 2006, published 2008).
Values joined by “and” are separate entries in the source; they are usually repeats but may differ in a detail not shown here. Identical values can stand only once. Like-named read-outs stand apart in the source and are kept apart here.

Key:
[1] = test system: Clone A cells (HCV genotype 1b replicon in Huh-7); assay: HCV replicon 3-day assay, HCV RNA by TaqMan RT-PCR; format: cell-based, Hepatitis C virus; settings: for EC50: Hepatitis C virus, Huh-7
Experimental: The level of HCV RNA from cultures was expressed as % HCV RNA relative to control. Each point represents an average of four replicates. The effective concentration that inhibits 50% of HCV RNA levels (EC50) in the replicon-containing cells is indicated.
The levels of HCV RNA were determined using a quantitative TAQMAN® RT-PCR (PE Applied Biosystems, Foster City, Calif.).
(§1) Drug susceptibility of the replicon-containing cells to various compounds was evaluated as described previously (Howe et al. (2004) Antimicrobial Agents Chem. 48:4813-21). Briefly, cells were treated with increasing concentrations of compounds in medium containing 2% FCS and no G418 for three days at 37° C. and 5% CO2. After incubation, total RNA from the replicon-containing cells was isolated. The levels of HCV, glyceraldehyde 3-phosphate dehydrogenase (GAPDH) and ribosomal (rRNA) RNAs were quantified using TAQMAN® (PE Applied Biosystems, Foster City, Calif.) reverse transcriptase PCR reactions. The amounts of HCV, 18S ribosomal, and GAPDH RNAs in each sample were estimated by comparing the number of cycles during the exponential phase of the PCR amplification with those in the corresponding standard curves. HCV RNA standards used for the construction of the standard curve were prepared by extracting the total RNA from the Clone A cells. The RNA sample was sent to National Genetics Institute to quantify HCV RNA. Total RNA extracted from Clone A cells was quantified by O.D.260 measurement and used for construction of the standard curves of rRNA and GAPDH. The concentrations of the compounds that inhibit 50% of the HCV RNA level (EC50) were determined using the MDL® LIFE SCIENCE WORKBENCH® (LSW) Data Analysis software (MDL Information Systems, San Leandro, Calif.) in Microsoft EXCEL®. The amounts of HCV or GAPDH RNAs in the samples were expressed as HCV RNA (copies) or GAPDH (ng), respectively, per μg of total RNA using rRNA as a marker for total RNA measurement.

[2] = test system: 1b, BB7 replicon (WT); assay: Replicon 3-day assay, wild type; format: cell-based, Hepatitis C virus; settings: for EC50: Hepatitis C virus
Experimental: pBB7-replicon variant DNAs were linearized with Sca I, and in vitro transcription was performed using Ambion's […]® T7 High Yield Transcription kit (Austin, Tex.). Purified RNA transcripts were electroporated into Huh-7 cells in quadruplicates using a Biorad GENE PULSER® Electroporation System (Setting: 270V, 950 μF) (Hercules, Calif.). Stably transfected replicon variant cell lines were initially selected with 0.25 mg/ml G418 and stepped up to 1 mg/ml before further testing. One cell plate was stained with Crystal Violet to visualize the number of colonies and determine the colony formation efficiency. Individual cell clones from each plate were pooled and expanded for drug susceptibility testing.
The contribution of individual amino acid changes on drug resistance was assessed in replicon variants containing single amino acid mutations in NS5B in the background of the genotype 1b, BB7 adaptive replicon (Blight et al. (2000) Science 290:1972-74).
as §1

[3] = test system: Clone A cells (genotype 1b HCV replicon); assay: Multiple treatments of Clone A cells, HCV RNA level; format: cell-based, Hepatitis C virus
Description: The amounts of HCV RNA and rRNA in cell aliquots were estimated using a quantitative duplex TAQMAN® RT-PCR. The Y-axis represents HCV copies per μg of total cellular RNA (using rRNA as a marker for quantification). Each data point represents an average value from three replicates.
As a control, Clone A cells were passaged in parallel in the same medium containing 0.5% DMSO without compound. […] An aliquot of the cells from each passage was collected to monitor the HCV RNA levels.

[4] = biological target: T1, HCV NS5B enzyme BB7-C316Y (Hepatitis C virus genotype 1b, UniProt Q9WMX2, C2735Y); assay: NS5B polymerase biochemical assay
T1 construct: To prepare expression plasmid NS5B-BB7dCT21-His(C316Y); His (C); made in house; host or cells: E. coli
Experimental: (§2) All NS5B enzymes were expressed and purified according to the protocol for NS5B-BB7dCT21-His as described (Howe et al. (2004) Antimicrobial Agents Chem. 48:4813-21). Briefly, expression plasmids were transformed into E. coli cells and NS5B expression was initiated by the addition of isopropyl-beta-D-thiogalactopyranoside (IPTG). After 4 to 6 hours of incubation the cells were harvested and lysed. NS5B enzymes were purified by chromatography using a nickel affinity column (Talon, B D Biosciences, Clontech Laboratories, Inc., Mountain View, Calif.)) followed by a cation exchange column (Poros H S, Applied Biosystems, Foster City, Calif.).

[5] = biological target: T2, HCV NS5B enzyme BK-N316C (Hepatitis C virus genotype 1b, UniProt P26663, N2735C); assay: NS5B polymerase biochemical assay
T2 construct: the NS5B enzyme derived from the genotype 1b BK isolate; His (C); made in house; host or cells: E. coli
Experimental: as §2

[6] = test system: HCV NS5B enzyme BB7-C316F; assay: NS5B polymerase biochemical assay; set-up: species or system Hepatitis C virus genotype 1b; settings: BB7-C316F vs BB7 (C316)
Experimental: as §2

[7] = test system: HCV NS5B enzyme BB7-C316Y; assay: NS5B polymerase biochemical assay; set-up: species or system Hepatitis C virus genotype 1b; settings: BB7-C316Y vs BB7 (C316)
Experimental: as §2

[8] = test system: HCV NS5B enzyme BB7-M414I; assay: NS5B polymerase biochemical assay; set-up: species or system Hepatitis C virus genotype 1b; settings: BB7-M414I vs BB7 (C316)
Experimental: as §2

[9] = biological target: T3, HCV NS5B enzyme BK (N316) (Hepatitis C virus genotype 1b, UniProt P26663); assay: NS5B polymerase biochemical assay
T3 construct: the NS5B enzyme derived from the genotype 1b BK isolate; His (C); made in house; host or cells: E. coli
Experimental: as §2

T2 sequence (P26663 2420-2989 N2735C): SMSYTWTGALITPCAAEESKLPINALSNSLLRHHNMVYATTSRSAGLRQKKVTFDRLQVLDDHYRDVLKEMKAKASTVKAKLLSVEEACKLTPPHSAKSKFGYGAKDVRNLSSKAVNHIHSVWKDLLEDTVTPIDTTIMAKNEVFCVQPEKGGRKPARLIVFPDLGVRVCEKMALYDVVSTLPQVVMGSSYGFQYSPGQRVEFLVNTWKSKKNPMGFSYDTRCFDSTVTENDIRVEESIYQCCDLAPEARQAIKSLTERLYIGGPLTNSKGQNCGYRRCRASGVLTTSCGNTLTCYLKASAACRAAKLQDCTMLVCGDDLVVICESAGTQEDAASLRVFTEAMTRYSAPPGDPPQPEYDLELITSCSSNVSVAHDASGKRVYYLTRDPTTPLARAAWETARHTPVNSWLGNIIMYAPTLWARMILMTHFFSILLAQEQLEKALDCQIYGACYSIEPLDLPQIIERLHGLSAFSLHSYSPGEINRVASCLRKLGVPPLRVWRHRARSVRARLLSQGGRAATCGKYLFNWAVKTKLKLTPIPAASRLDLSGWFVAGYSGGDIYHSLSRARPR
T1 sequence (Q9WMX2 2420-2989 C2735Y): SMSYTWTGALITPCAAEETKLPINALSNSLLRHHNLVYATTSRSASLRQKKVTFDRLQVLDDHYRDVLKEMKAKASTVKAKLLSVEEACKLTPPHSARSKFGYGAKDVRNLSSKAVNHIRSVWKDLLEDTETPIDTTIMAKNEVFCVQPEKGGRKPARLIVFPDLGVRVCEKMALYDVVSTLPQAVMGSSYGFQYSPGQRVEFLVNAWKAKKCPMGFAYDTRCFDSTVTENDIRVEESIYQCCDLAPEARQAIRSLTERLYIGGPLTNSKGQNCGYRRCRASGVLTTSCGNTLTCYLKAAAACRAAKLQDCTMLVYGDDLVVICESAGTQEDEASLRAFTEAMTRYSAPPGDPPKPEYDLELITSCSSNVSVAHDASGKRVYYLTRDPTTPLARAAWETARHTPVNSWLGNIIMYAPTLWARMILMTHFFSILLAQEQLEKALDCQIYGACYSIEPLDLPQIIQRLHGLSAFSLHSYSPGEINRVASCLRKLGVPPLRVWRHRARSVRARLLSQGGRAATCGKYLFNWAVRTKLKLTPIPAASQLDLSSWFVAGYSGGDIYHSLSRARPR
T3 sequence (P26663 2420-2989): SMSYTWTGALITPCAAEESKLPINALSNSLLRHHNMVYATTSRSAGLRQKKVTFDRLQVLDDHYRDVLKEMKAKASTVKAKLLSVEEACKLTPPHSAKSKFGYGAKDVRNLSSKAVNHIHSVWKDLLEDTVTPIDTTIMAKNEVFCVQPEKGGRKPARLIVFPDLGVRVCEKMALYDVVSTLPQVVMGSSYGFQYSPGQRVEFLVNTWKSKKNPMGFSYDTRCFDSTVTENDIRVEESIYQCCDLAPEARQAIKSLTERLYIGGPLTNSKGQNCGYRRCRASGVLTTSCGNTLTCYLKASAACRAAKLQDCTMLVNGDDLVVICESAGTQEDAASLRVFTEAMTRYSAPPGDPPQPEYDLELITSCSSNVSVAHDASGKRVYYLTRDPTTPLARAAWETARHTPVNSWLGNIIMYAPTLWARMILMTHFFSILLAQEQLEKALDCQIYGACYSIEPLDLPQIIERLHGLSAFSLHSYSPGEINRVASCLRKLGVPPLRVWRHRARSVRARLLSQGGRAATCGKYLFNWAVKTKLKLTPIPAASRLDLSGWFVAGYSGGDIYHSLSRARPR

CNC(=O)c1c(-c2ccc(F)cc2)oc2cc(N(CCO)S(C)(=O)=O)c(C3CC3)cc12 [HCV-796, 5-cyclopropyl-2-(4-fluorophenyl)-6-[(2-hydroxyethyl)(methylsulfonyl)amino]-N-methyl-1-benzofuran-3-carboxamide]
Mean log10 Viral Reduction ([1]; CloneA cells, 0.7 μM compound, 3-day assay): 2.1 log10 and 2.1 ± 0.4 (0.7 μM) log10
EC50 ([1]; CloneA cells, HCV RNA, 72 hours, read-out: EC50 (μM) ± SD): 0.013 ± 0.013 µM
EC50 ([1]; hepatoma cells containing a subgenomic genotype 1b HCV replicon, read-out: EC50): 0.009 µM
Viral Load Reduction ([2]; 1b, BB7, 2240 nM HCV-796, 3-day assay): 1.9 ± 0.3 log
EC50 [2]: 8.6 nM
EC50 ([2]; 72 h, 1b, BB7, 3-day assay, read-out: HCV RNA EC50 (nM) ± SD): 3 ± 1 nM
decrease in the HCV RNA levels ([3]; 0.1 μM HCV-796, end of 16-day treatment): about 3.6 log10
decrease in the HCV RNA levels ([3]; 1 μM HCV-796, end of 16-day treatment): ~4.2 log10
reduction of HCV RNA levels ([3]; hepatoma cells containing a subgenomic genotype 1b HCV replicon): 3-4 log10 HCV copies/μg total RNA
IC50 [4]: 0.32 ± 0.01 µM
IC50 [5]: 0.031 ± 0.004 µM
Susceptibility Relative to Wild type Enzyme ([5]; BK-N316C vs wild type BK (N316)): 4.5 fold more and 4.5-fold more
Susceptibility Relative to Wild type Enzyme [6]: 124-fold less
Susceptibility Relative to Wild type Enzyme [7]: 8-fold less
Susceptibility Relative to Wild type Enzyme [8]: 1.7-fold more
IC50 [9]: 140 ± 50 nM
